{
  "source": "patent US6573284B1",
  "about": "“Method of treating melanoma” (priority 1996, dated 2003)",
  "key": {"mushroom tyrosinase": {"tested_on": "mushroom tyrosinase", "assay": "Oximetry: oxidation of substrates by tyrosinase", "assay_type": "biochemical", "conditions": "100 μM substrate, 165 units of tyrosinase/ml, room temperature; compared with tyrosine"}, "[1]": {"tested_on": "human melanoma (C32, G361 and STMl1la) and nonmelanoma derived cell lines (Caki-2 and CHO)", "assay_type": "cell-based"}, "tyrosinase": {"tested_on": "tyrosinase", "assay": "Release of drug from prodrug upon treatment with tyrosinase (TLC, GCMS)", "assay_type": "biochemical", "conditions": "DMSO/phosphate buffer pH 7.2, 25° C., 1 hour; TLC and GCMS"}},
  "note": "Entries after “also recorded” stand apart in the source; their conditions may differ.",
  "data": [
    {"smiles": "COc1ccc(O)cc1", "note": "[4-Hydroxyanisole, 4-hydroxyanisole]", "values": [
      {"measurement": "oxidation by tyrosinase (utilization of oxygen with respect to time)", "setting": "mushroom tyrosinase", "value": "oxidised, but at a lower rate than tyrosine"}
    ]},
    {"smiles": "O=C(NCCc1ccc(O)c(O)c1)Oc1ccc(N(CCCl)CCCl)cc1", "note": "[Compound A, N-(N-bis-chlorethyl-4-amino-phenyloxycarbonyl)-3-hydroxy-tyramine]", "values": [
      {"measurement": "relative toxicity (inverse of the IC50)", "setting": "[1]", "value": "relatively non-toxic; also recorded: increasing toxicity with tyrosinase activity"},
      {"measurement": "oxidation by tyrosinase (utilization of oxygen with respect to time)", "setting": "mushroom tyrosinase", "value": "oxidised by tyrosinase, although the rate of the reaction was lower than for the normal substrate"},
      {"measurement": "melting point", "value": "80 °C (dec.)"}
    ]},
    {"smiles": "NCCc1ccc(O)c(O)c1", "note": "[Compound B]", "values": [
      {"measurement": "relative toxicity (inverse of the IC50)", "setting": "[1]", "value": "essentially non-toxic"}
    ]},
    {"smiles": "CC(=O)N[C@@H](Cc1ccc(O)cc1)C(=O)O", "note": "[N-acetyl tyrosine]", "values": [
      {"measurement": "oxidation by tyrosinase (utilization of oxygen with respect to time)", "setting": "mushroom tyrosinase", "value": "oxidised, but at a lower rate than tyrosine"}
    ]},
    {"smiles": "O=C(NCCc1ccc(O)cc1)Oc1ccc(N(CCCl)CCCl)cc1", "note": "[Prodrug (1)]", "values": [
      {"measurement": "release of mustard drug upon tyrosinase treatment", "setting": "tyrosinase", "value": "a component of identical Rf to the authentic mustard drug had been produced"}
    ]}
  ]
}
